# Data taken from article PMC10673995, “Discovery of a novel cardiac-specific myosin modulator using artificial intelligence-based virtual screening” (Nature Communications, 2023).
# Values joined by “and” are separate entries in the source; they are usually repeats but may differ in a detail not shown here. Identical values can stand only once.
# Test system: isolated Langendorff-perfused rat hearts
# Assay: Langendorff-perfused rat hearts, haemodynamic parameters
# Set-up: key to LVSP, individual hearts / LVEDP, individual hearts: pressure in mmHg; Max (Figure 5c): unit not given here
# Settings: for Max (Figure 5c): one column per heart; for LVSP representative trace, ON: during perfusion with compound
# Description: Next, we tested for the functional effects of F10 in isolated Langendorff-perfused rat hearts. Hearts were initially stabilized in modified Krebs-Henseleit (KH) solution for about 25–30 min and subsequently perfused with KH solution containing 20 μmol L^−1 F10 for 5 mins to reach a new steady state.
# Rat hearts were Langendorff-perfused as described previously. Briefly, Wistar rats (Rattus norvegicus, male, 200–250 g, 7 weeks old) were anesthetized by injection of 0.9 mL sodium pentobarbitone 20% (w/v). […] The aorta was cannulated and secured with sutures (Mersilk 3‐0; Ethicon, Somerville, NJ, USA). Hearts were perfused at a constant perfusion pressure of 70 ± 2 mmHg using a peristaltic pump (Gilson Minipuls 4, Middleton, WI, USA) and a feedback control system (STH Pump Controller; AD Instruments, Oxford, UK). […] A fluid‐filled balloon, attached to a pressure transducer, was inserted into the left ventricle and inflated to give an end‐diastolic pressure between 3 and 8 mmHg. Left ventricular pressure (LVP), perfusion pressure, coronary flow and arterial and venous oxygen tensions were recorded using a PowerLab recorder and LabChart 8.0 software (ADInstruments). Functional parameters were averaged for ∼80 cardiac cycles at 5 min intervals.
# [1] = 20 μmol L^−1 F10 or 1 μmol L^−1 Mavacamten
# [2] = Time 11 min, during perfusion with 20 μmol L^−1 F10 or 1 μmol L^-1 Mavacamten
# [3] = Time 12 min, during perfusion with 20 μmol L^−1 F10 or 1 μmol L^-1 Mavacamten
# [4] = Time 13 min, during perfusion with 20 μmol L^−1 F10 or 1 μmol L^-1 Mavacamten
# [5] = Time 14 min, during perfusion with 20 μmol L^−1 F10 or 1 μmol L^-1 Mavacamten
# [6] = Time 15 min, during perfusion with 20 μmol L^−1 F10 or 1 μmol L^-1 Mavacamten
smiles,measurement,setting,value
CCc1cc2c(=O)n(NC(=S)NC(C)C)cnc2s1 [F10],decrease of LVSP,20 μmol L^−1 F10,about 65%
same,time to LVSP decrease,20 μmol L^−1 F10,2 to 3 min
same,LVEDP,"20 μmol L^−1 F10, baseline 1.9 ± 0.2",22.0 ± 1.1 mmHg
same,Coronary flow,"20 μmol L^−1 F10, baseline 15.6 ± 1.7",16.7 ± 2.3 mL/min
same,LVSP (left ventricular systolic pressure),"20 μmol L^−1 F10, baseline 168.0 ± 8.5",58.3 ± 2.2 mmHg and ~60 mmHg
same,Heart rate,"20 μmol L^−1 F10, baseline 303 ± 8",300 ± 4 bpm
same,dP dt-1max,"20 μmol L^−1 F10, baseline 3978.8 ± 108.0",1329.0 ± 153.8 mmHg s-1
same,dP dt-1min,"20 μmol L^−1 F10, baseline -3352.4 ± 134.4",-1300.0 ± 104.2 mmHg s-1
same,effect on coronary perfusion / coronary flow,[1],"without, however, affecting"
same,effect on heart rate,[1],"without, however, affecting"
same,effect on left ventricular end-diastolic pressure (LVEDP),[1],slightly increased
same,Max (Figure 5c),Time 0 min,4538.86 and 3737.57 and 4104.74 and 3514.73
same,Max (Figure 5c),Time 1 min,4533.2 and 3831.26 and 4064.23 and 3491.94
same,Max (Figure 5c),Time 2 min,4496.16 and 3879.38 and 4046.5 and 3811.01
same,Max (Figure 5c),Time 3 min,4752.62 and 3481.82 and 4079.42 and 3811
same,Max (Figure 5c),Time 4 min,4748.26 and 3745.17 and 3942.68 and 3866.71
same,Max (Figure 5c),Time 5 min,4784.79 and 3724.91 and 3914.83 and 3735.04
same,Max (Figure 5c),Time 6 min,4906.21 and 3922.42 and 4049.03 and 3689.46
same,Max (Figure 5c),Time 7 min,4229.13 and 4155.39 and 4130.07 and 3504.61
same,Max (Figure 5c),Time 8 min,3838.64 and 3904.7 and 4175.65 and 3570.44
same,Max (Figure 5c),Time 9 min,4069.64 and 3864.18 and 4233.89 and 3747.7
same,Max (Figure 5c),Time 10 min,4016.14 and 3757.83 and 4254.14 and 3608.43
same,"LVEDP, individual hearts",[2],15.6 and 9.2 (2×) and 12.7
same,"LVSP, individual hearts",[2],111 and 115 and 127 and 112
same,Max (Figure 5c),Time 11 min,2272.52 and 2689.23 and 2643.65 and 2375.23
same,"LVEDP, individual hearts",[3],29.6 and 15 and 19.6 and 15.9
same,"LVSP, individual hearts",[3],61 and 72 and 67 and 69
same,Max (Figure 5c),Time 12 min,1178.7 and 1696.59 and 1306.63 and 1372.47
same,"LVEDP, individual hearts",[4],33.1 and 16.4 and 22.8 and 17.5
same,"LVSP, individual hearts",[4],53 and 61 and 54 and 64
same,Max (Figure 5c),Time 13 min,944.61 and 1258.52 and 1063.54 and 1212.94
same,"LVEDP, individual hearts",[5],33.5 and 16.7 and 22.2 and 17.6
same,"LVSP, individual hearts",[5],53 and 62 and 55 and 63
same,"LVEDP, individual hearts",[6],24.3 and 20.65 and 23.5 and 19.6
same,"LVSP, individual hearts",[6],54 and 60 and 59 and 62
same,Max (Figure 5c),Time 15 min,1778.6 and 1228.13 and 1081.26
same,"LVEDP, individual hearts","Time 16 min, after washout",10.1 and 9 and 13.9 and 11.2
same,"LVSP, individual hearts","Time 16 min, after washout",56 and 118 and 105 and 99
same,Max (Figure 5c),Time 16 min,3660.62 and 2787.98 and 2279.01 and 1886.51
same,"LVEDP, individual hearts","Time 17 min, after washout",4.9 and 3.7 and 8.8 and 5.7
same,"LVSP, individual hearts","Time 17 min, after washout",80 and 162 and 174 and 148
same,Max (Figure 5c),Time 17 min,4729.41 and 3935.08 and 3990.79 and 3096.92
same,"LVEDP, individual hearts","Time 18 min, after washout",3.9 and 2 and 7.3 (2×)
same,"LVSP, individual hearts","Time 18 min, after washout",157 and 184 and 161 and 128
same,Max (Figure 5c),Time 18 min,4833.67 and 4428.87 and 3509.67 and 2539.83
same,"LVEDP, individual hearts","Time 19 min, after washout",4.5 and 0 and 5.9 and 6.4
same,"LVSP, individual hearts","Time 19 min, after washout",189 and 183 and 170 and 127
same,Max (Figure 5c),Time 19 min,4740.03 and 4469.38 and 3319.75 and 2476.52
same,"LVEDP, individual hearts","Time 20 min, after washout",4.8 and 1.5 and 7.4 and 6.4
same,"LVSP, individual hearts","Time 20 min, after washout",198 and 188 and 151 and 124
same,Max (Figure 5c),Time 20 min,4601.11 and 4596 and 3177.95 and 2499.31
same,"LVEDP, individual hearts","Time 21 min, after washout",3.4 and 1.5 and 7.5 and 6
same,"LVSP, individual hearts","Time 21 min, after washout",199 and 191 and 151 and 124
same,Max (Figure 5c),Time 21 min,4625.81 and 4497.24 and 3228.59 and 2473.99
same,"LVEDP, individual hearts","Time 22 min, after washout",0.7 and 0.5 and 7.5 and 6.6
same,"LVSP, individual hearts","Time 22 min, after washout",200 and 181 and 145 and 127
same,Max (Figure 5c),Time 22 min,4517.25 and 4112.34 and 3099.45 and 2489.18
same,"LVEDP, individual hearts","Time 23 min, after washout",3.5 and 0.4 and 5.8 and 6.4
same,"LVSP, individual hearts","Time 23 min, after washout",202 and 174 and 144 and 129
same,Max (Figure 5c),Time 23 min,4435.96 and 3988.26 and 3074.13 and 2524.63
same,"LVEDP, individual hearts","Time 24 min, after washout",3.4 and 1.5 and 6.4 and 5.5
same,"LVSP, individual hearts","Time 24 min, after washout",196 and 173 and 146 and 133
same,Max (Figure 5c),Time 24 min,4141.16 and 3968 and 3132.37 and 2582.87
same,"LVEDP, individual hearts","Time 25 min, after washout",2.4 and 0.2 and 5.3 and 4.7
same,"LVSP, individual hearts","Time 25 min, after washout",195 and 173 and 151 and 139
same,Max (Figure 5c),Time 25 min,4228.11 and 3945.21 and 3241.25 and 2668.97
same,"LVSP representative trace, OFF","after washout, t 0 s",26.9301 mmHg
same,"LVSP representative trace, OFF","after washout, t 10 s",27.9144 mmHg
same,"LVSP representative trace, OFF","after washout, t 20 s",30.1929 mmHg
same,"LVSP representative trace, OFF","after washout, t 30 s",33.9204 mmHg
same,"LVSP representative trace, OFF","after washout, t 40 s",39.0616 mmHg
same,"LVSP representative trace, OFF","after washout, t 50 s",45.8972 mmHg
same,"LVSP representative trace, OFF","after washout, t 60 s",54.0831 mmHg
same,"LVSP representative trace, OFF","after washout, t 70 s",63.6019 mmHg
same,"LVSP representative trace, OFF","after washout, t 80 s",75.1964 mmHg
same,"LVSP representative trace, OFF","after washout, t 90 s",88.9731 mmHg
same,"LVSP representative trace, OFF","after washout, t 100 s",99.8102 mmHg
same,"LVSP representative trace, OFF","after washout, t 110 s",110.826 mmHg
same,"LVSP representative trace, OFF","after washout, t 120 s",122.733 mmHg
same,"LVSP representative trace, OFF","after washout, t 130 s",132.379 mmHg
same,"LVSP representative trace, OFF","after washout, t 140 s",138.465 mmHg
same,"LVSP representative trace, OFF","after washout, t 150 s",148.942 mmHg
same,"LVSP representative trace, OFF","after washout, t 160 s",154.992 mmHg
same,"LVSP representative trace, OFF","after washout, t 170 s",158.488 mmHg
same,"LVSP representative trace, OFF","after washout, t 180 s",163.133 mmHg
same,"LVSP representative trace, OFF","after washout, t 190 s",167.458 mmHg
same,"LVSP representative trace, OFF","after washout, t 200 s",171.598 mmHg
same,"LVSP representative trace, OFF","after washout, t 210 s",175.866 mmHg
same,"LVSP representative trace, OFF","after washout, t 220 s",181.264 mmHg
same,"LVSP representative trace, OFF","after washout, t 230 s",184.759 mmHg
same,"LVSP representative trace, OFF","after washout, t 240 s",185.799 mmHg
same,"LVSP representative trace, ON",t 0 s,184.006 mmHg
same,"LVSP representative trace, ON",t 10 s,181.455 mmHg
same,"LVSP representative trace, ON",t 20 s,172.654 mmHg
same,"LVSP representative trace, ON",t 30 s,155.565 mmHg
same,"LVSP representative trace, ON",t 40 s,123.466 mmHg
same,"LVSP representative trace, ON",t 50 s,94.0285 mmHg
same,"LVSP representative trace, ON",t 60 s,73.0453 mmHg
same,"LVSP representative trace, ON",t 70 s,48.8284 mmHg
same,"LVSP representative trace, ON",t 80 s,40.271 mmHg
same,"LVSP representative trace, ON",t 90 s,34.4969 mmHg
same,"LVSP representative trace, ON",t 100 s,31.9133 mmHg
same,"LVSP representative trace, ON",t 110 s,30.398 mmHg
same,"LVSP representative trace, ON",t 120 s,28.7612 mmHg
same,"LVSP representative trace, ON",t 130 s,28.2624 mmHg
same,"LVSP representative trace, ON",t 140 s,27.1705 mmHg
same,Coronary flow,individual hearts,18.7 mL/min and 18.0 mL/min and 20.0 mL/min and 10.0 mL/min
same,Heart rate,individual hearts,295.0 bpm and 311.0 bpm and 292.0 bpm and 302.0 bpm
same,LVEDP,individual hearts,30.3 mmHg and 17.9 mmHg and 22.8 mmHg and 18.2 mmHg
same,LVSP,individual hearts,53.3 mmHg and 61.0 mmHg and 56.0 mmHg and 63.0 mmHg
same,dP dt-1max,individual hearts,1778.6 mmHg s-1 and 1228.1 mmHg s-1 (2×) and 1081.3 mmHg s-1
same,dP dt-1min,individual hearts,-1606.8 mmHg s-1 and -1233.2 mmHg s-1 and -1142.0 mmHg s-1 and -1218.0 mmHg s-1
same,reversibility of the effect on washout,perfusion with KH solution in the absence of F10,completely reversible
